# Measured values from the supplement of paper PMC10307832.
# Tests used:
# Experiment in all cases: relative viability (nuclei count vs DMSO), 5 days (fraction); higher = more cells survive
# Lapatinib + Tozasertib = compound: CS(=O)(=O)CCNCc1ccc(-c2ccc3ncnc(Nc4ccc(OCc5cccc(F)c5)c(Cl)c4)c3c2)o1 [Lapatinib] + Cc1cc(Nc2cc(N3CCN(C)CC3)nc(Sc3ccc(NC(=O)C4CC4)cc3)n2)n[nH]1 [Tozasertib] (partner 0.1 µM)
# Method in brief: (§1)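 Lung cancer cell lines in 1536-well plates were dosed by pin tool the day after seeding, either with one drug alone or with a fixed anchor-drug dose plus five library-drug doses (not always all listed) in √10 steps. After 5 days, cells were fixed and their nuclei stained in one step (final 0.05% Triton X-100, 1% formaldehyde, 1 ug/ml Hoechst), then counted on 4× images. Relative viability is the nuclei count in treated wells divided by that in vehicle wells. Values are medians of duplicate plates.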
# Wnt-C59 + Pemetrexed = compound: CC1=NC=CC(=C1)C2=CC=C(C=C2)CC(=O)NC3=CC=C(C=C3)C4=CN=CC=C4 [Wnt-C59] + Nc1nc2[nH]cc(CCc3ccc(C(=O)N[C@@H](CCC(=O)O)C(=O)O)cc3)c2c(=O)[nH]1 [Pemetrexed] (partner 0.2 µM)
# Method in brief: as §1
# Wnt-C59 + Olaparib = compound: CC1=NC=CC(=C1)C2=CC=C(C=C2)CC(=O)NC3=CC=C(C=C3)C4=CN=CC=C4 [Wnt-C59] + O=C(c1cc(Cc2n[nH]c(=O)c3ccccc23)ccc1F)N1CCN(C(=O)C2CC2)CC1 [Olaparib] (partner 8 µM)
# Method in brief: as §1
# Lapatinib + Phenformin = compound: CS(=O)(=O)CCNCc1ccc(-c2ccc3ncnc(Nc4ccc(OCc5cccc(F)c5)c(Cl)c4)c3c2)o1 [Lapatinib] + N=C(N)NC(=N)NCCc1ccccc1 [Phenformin] (partner 250 µM)
# Method in brief: as §1
Cell Line,relative viability (Lapatinib + Tozasertib; first compound 0.06325 µM),relative viability (Lapatinib + Tozasertib; first compound 0.2 µM),relative viability (Lapatinib + Tozasertib; first compound 0.6325 µM),relative viability (Lapatinib + Tozasertib; first compound 2 µM),relative viability (Wnt-C59 + Pemetrexed; first compound 0.001 µM),relative viability (Wnt-C59 + Pemetrexed; first compound 0.01 µM),relative viability (Wnt-C59 + Pemetrexed; first compound 0.03162 µM),relative viability (Wnt-C59 + Pemetrexed; first compound 0.1 µM),relative viability (Wnt-C59 + Olaparib; first compound 0.001 µM),relative viability (Wnt-C59 + Olaparib; first compound 0.01 µM),relative viability (Wnt-C59 + Olaparib; first compound 0.03162 µM),relative viability (Wnt-C59 + Olaparib; first compound 0.1 µM),relative viability (Lapatinib + Phenformin; first compound 0.06325 µM),relative viability (Lapatinib + Phenformin; first compound 0.2 µM),relative viability (Lapatinib + Phenformin; first compound 0.6325 µM),relative viability (Lapatinib + Phenformin; first compound 2 µM),relative viability (Lapatinib + Tozasertib; first compound 0.02 µM),relative viability (Lapatinib + Phenformin; first compound 0.02 µM)
NCI-H441,0.551,0.491,0.462,0.454,0.277,0.225,0.258,0.276,0.569,0.632,0.633,0.447,0.43,0.946,0.901,0.873,–,–
NCI-H1437,0.411,0.378,0.347,0.367,0.36,0.299,0.31,0.331,0.626,0.629,0.62,0.605,0.278,0.258,0.303,0.253,0.388,0.289
BEN,0.513,0.51,0.515,0.351,0.707,0.738,0.754,0.846,1.32,1.04,1.27,0.94,0.301,0.26,0.241,0.229,–,–
LOU-NH91,0.504,0.524,0.51,0.427,0.386,0.384,0.345,0.38,0.966,0.873,0.955,0.883,0.533,0.479,0.533,0.433,0.643,0.463
PC-3 [JPC-3],0.83,0.909,0.803,0.506,1.11,1.24,1.04,1.47,1.18,1.21,1.22,1.16,0.468,0.457,0.521,0.431,0.876,0.452
NCI-H1355,0.416,0.498,0.494,0.26,1.04,1.03,1.03,0.96,0.726,0.756,0.717,0.716,0.37,0.455,0.428,0.367,–,–
NCI-H520,0.393,0.41,0.543,0.405,0.655,0.626,0.787,0.682,0.299,0.313,0.381,0.357,0.596,0.542,0.653,0.638,0.511,0.516
SK-LU-1,0.306,0.3,0.29,0.235,0.969,1,1,0.973,0.444,0.476,0.4,0.434,0.484,0.547,0.674,0.512,0.32,0.464
NCI-H2228,0.258,0.145,0.205,0.135,0.306,0.334,0.337,0.328,1.04,0.635,0.641,0.734,0.25,0.245,0.292,0.325,0.25,0.33
NCI-H358,0.0876,0.0913,0.078,0.0817,0.167,0.176,0.207,0.172,0.623,0.609,0.576,0.801,0.107,0.222,0.215,0.171,0.0946,0.25
EKVX,0.333,0.448,0.273,0.143,0.376,–,0.367,0.361,0.837,–,0.906,0.72,0.218,0.242,0.235,0.146,0.366,0.185
HCC-78,0.327,0.407,0.377,0.328,0.913,0.883,0.907,0.934,0.883,0.852,0.855,0.633,0.631,0.588,0.856,0.654,–,–
NCI-H2085,0.748,0.73,0.532,0.337,0.837,0.887,0.963,0.888,0.795,0.769,0.822,0.744,0.64,0.735,0.61,0.458,–,–
NCI-H23,–,0.29,0.307,0.218,0.589,0.595,0.59,0.703,0.353,0.256,0.362,0.333,–,0.792,0.805,0.761,–,–
NCI-H647,0.197,0.184,0.212,0.183,0.162,0.158,0.201,0.178,0.579,0.539,0.762,0.513,0.416,0.517,0.631,0.219,0.312,0.352
NCI-H1395,0.774,0.701,0.683,0.677,0.968,0.861,0.94,0.885,0.497,0.444,0.411,0.424,0.431,0.442,0.444,0.432,0.716,0.45
COR-L 105,0.351,0.355,0.294,0.244,1.13,0.887,1.14,1.15,0.708,0.727,0.684,0.656,0.336,0.418,0.289,0.275,0.351,0.486
NCI-H1651,0.622,0.508,0.443,0.325,0.577,0.618,0.648,0.558,0.202,0.164,0.203,0.184,0.25,0.34,0.308,0.374,0.541,0.35
PC-14,0.604,0.638,0.551,0.356,0.131,0.138,0.109,0.143,0.26,0.248,0.342,0.292,0.642,0.523,0.461,0.337,–,–
